Test results as given in patent US20150337010A1, “Method for treating or preventing liver related diseases” (Tunghai University, priority 2014, published 2015).

Assays:
Assay type in all cases: in vivo, C57BL/6 male mice
[1] = system: Caspase-8; assay: Western blotting of liver protein extract: Caspase-8; conditions: high-fat diet mice, groups 3~5 (5, 15, 25 mg/kg/day i.p.), normalized with tubulin, compared with group 2
Procedure: (§1) The experiments using the experimental mice were conducted according to the IACUC-100-12 protocol approved by Academia Sinica Institutional Animal Care and Utilization Committee (IACUC) ethics committee. All C57BL/6 male mice (6-weeks-old) were randomly divided into 5 groups that contain 8 mice in each. These mice were individually housed in a room temperature at 24±2° C. and 55±10% humidity with 12 hours of light cycle. Herein, the control mice in the group 1 were fed with standard laboratory diet and administrated 0.9% normal saline by intra-peritoneal injection. […]
(§2) Protein concentration of extract was determined by Lowry's protein assay method, first. […]
(§3) The protein extract of the mouse liver of the each group was prepared in example 4 and then to determine the expressions of apoptosis and survive related proteins using western blotting of example 5. The expression pattern of the apoptosis and survive related proteins were shown in FIG. 7 to FIG. 12, wherein the expression of tubulin was utilized as the internal control in western blot analysis in FIG. 7, FIG. 9 and FIG. 11, and the relative expression levels of the apoptosis and survive related proteins in mouse liver were normalized with tubulin for quantification in FIG. 8, FIG. 10 and FIG. 12. […]

[2] = system: matrix metalloproteinase-9; assay: Western blotting of liver protein extract: MMP-9 (hepatic fibrosis biomarker); conditions: high-fat diet mice, groups 3~5 (5, 15, 25 mg/kg/day i.p.), normalized with tubulin, compared with group 2
Procedure: as §1, with “injection. In the group 2, the mice were fed with high-fat diet to induce the fatty liver, and administrated 0.9% normal saline by intra-peritoneal injection.” for “injection.”
as §2
According to method in example 5, protein extract of mouse liver in the each group prepared in example 4 was subjected to determine the expression pattern and relative level of matrix metalloproteinase-9 (hereafter referred to as MMP 9). The results were shown in FIG. 13 and FIG. 14, wherein in FIG. 13, the expression of tubulin was utilized as the internal control in the western blotting and in FIG. 14, the quantified expression level of MMP-9 in the mouse liver of the each group was calculated with normalized with quantified expression level of tubulin.

[3] = system: PI3K; assay: Western blotting of liver protein extract: PI3K; conditions: high-fat diet mice, groups 3~5 (5, 15, 25 mg/kg/day i.p.), normalized with tubulin, compared with group 2
Procedure: as §1, §2, §3

[4] = system: mouse liver; assay: Histopathological examination (H&E) of mouse liver, high-fat diet fed mice; conditions: high-fat diet mice, 5, 15 or 25 mg/kg/day intra-peritoneal (groups 3~5)
Procedure: (§4) The experiments using the experimental mice were conducted according to the IACUC-100-12 protocol approved by Academia Sinica Institutional Animal Care and Utilization Committee (IACUC) ethics committee. All C57BL/6 male mice (6-weeks-old) were randomly divided into 5 groups that contain 8 mice in each. These mice were individually housed in a room temperature at 24±2° C. and 55±10% humidity with 12 hours of light cycle. Herein, the control mice in the group 1 were fed with standard laboratory diet and administrated 0.9% normal saline by intra-peritoneal injection. In the group 2, the mice were fed with high-fat diet to induce the fatty liver, and administrated 0.9% normal saline by intra-peritoneal injection. In the group 3, the mice were fed with high-fat diet and administrated with peptide of SEQ ID No.1 by intra-peritoneal injected with the dose of 5 mg/kg/day. In the group 4, the mice were fed with high-fat diet and administrated with peptide of SEQ ID No.1 by intra-peritoneal injected with the dose of 15 mg/kg/day. In the group 5, the mice were fed with high-fat diet and administrated with peptide of SEQ ID No.1 by intra-peritoneal injected with the dose of 25 mg/kg/day. The inter-peritoneal injections were performed on these mice between third to sixth weeks of culture.
The livers were excised from the mice of the each group; soaked in formalin; dehydrated by passing consecutively through […] and then embedded in paraffin wax. The each embedded liver tissue block was cut into […] sections and deparaffinization by soaking in xylene. The histological section of the mouse liver in the each group was consecutively stained by hematoxylin and eosin (H&E) and rinsed with water. The photomicrographs of the histological section of the mouse liver in the each group obtained using Zeiss Axiophot microscope (Thornwood Co, USA.) were shown in FIG. 3 and FIG. 4.

[5] = system: TNFα; assay: Western blotting of liver protein extract: TNFα; conditions: high-fat diet mice, groups 3~5 (5, 15, 25 mg/kg/day i.p.), normalized with tubulin, compared to group 2
Procedure: as §1, with “injection. In the group 2, the mice were fed with high-fat diet to induce the fatty liver, and administrated 0.9% normal saline by intra-peritoneal injection.” for “injection.”
as §2
(§5) According to the methods in example 4 and 5, preparing the protein extract of mouse liver in the each group and then the expression pattern of TNFα and IL-6 in mouse liver of the each group was determined by western blotting. The results were shown in FIG. 5 and FIG. 6, wherein the expression of tubulin was utilized as internal control in FIG. 5 and FIG. 6 and the relative amount of TNFα and IL-6 in mouse liver of the each group were separately quantified and normalization with the internal control.

[6] = LDL-cholesterol and triglyceride in blood plasma of high-fat diet fed mice; conditions: high-fat diet mice, 5, 15 or 25 mg/kg/day intra-peritoneal (groups 3~5), compared with group 2 (high-fat diet, saline)
Procedure: as §4, with “In the group 5, the mice were fed with high-fat diet and administrated with peptide of SEQ ID No.1 by intra-peritoneal injected with the dose of 25 mg/kg/day. The inter-peritoneal injections were performed on these mice between third to sixth weeks of culture.” left out
The blood samples collected from the mice in each group indicated in example 1 into the microcentrifuge tubes containing heparin (10 μL, 1000 IU/ml). […] The concentration of low density lipoprotein-cholesterol (hereafter referred to as LDL) and triglyceride in the isolated blood plasma from the mice in the each group were determined by using the commercial detection kit.

[7] = system: AKT; assay: Western blotting of liver protein extract: AKT; conditions: high-fat diet mice, groups 3~5 (5, 15, 25 mg/kg/day i.p.), normalized with tubulin, compared with group 2
Procedure: as §1, §2, §3

[8] = system: PPARα; assay: Western blotting of liver protein extract: PPARα; conditions: high-fat diet mice, groups 3~5 (5, 15, 25 mg/kg/day i.p.), normalized with tubulin, compared with group 2
Procedure: as §1, with “injection. In the group 2, the mice were fed with high-fat diet to induce the fatty liver, and administrated 0.9% normal saline by intra-peritoneal injection.” for “injection.”
as §2
According to method in example 5, protein extract of mouse liver in each group prepared in example 4 was subjected to determine the expression pattern and relative level of PPARα. The results were shown in FIG. 15 and FIG. 16, wherein the expression of tubulin was utilized as the internal control in FIG. 15 and the quantified expression level of PPARα in the mouse livers of the each group was calculated with normalized with quantified expression level of tubulin in FIG. 16.

[9] = system: cytochrome c; assay: Western blotting of liver protein extract: cytochrome c; conditions: high-fat diet mice, groups 3~5 (5, 15, 25 mg/kg/day i.p.), normalized with tubulin, compared with group 2
Procedure: as §1, §2, §3

[10] = system: Bax; assay: Western blotting of liver protein extract: Bax; conditions: high-fat diet mice, groups 3~5 (5, 15, 25 mg/kg/day i.p.), normalized with tubulin, compared with group 2
Procedure: as §1, §2, §3

[11] = system: Caspase-3; assay: Western blotting of liver protein extract: Caspase-3; conditions: high-fat diet mice, groups 3~5 (5, 15, 25 mg/kg/day i.p.), normalized with tubulin, compared with group 2
Procedure: as §1, §2, §3

[12] = system: Bcl-2; assay: Western blotting of liver protein extract: Bcl-2; conditions: high-fat diet mice, groups 3~5 (5, 15, 25 mg/kg/day i.p.), normalized with tubulin, compared with group 2
Procedure: as §1, §2, §3

[13] = system: IL-6; assay: Western blotting of liver protein extract: IL-6; conditions: high-fat diet mice, groups 3~5 (5, 15, 25 mg/kg/day i.p.), normalized with tubulin, compared to group 2
Procedure: as §1, with “injection. In the group 2, the mice were fed with high-fat diet to induce the fatty liver, and administrated 0.9% normal saline by intra-peritoneal injection.” for “injection.”
as §2, §5

[14] = system: Caspase-9; assay: Western blotting of liver protein extract: Caspase-9; conditions: high-fat diet mice, groups 3~5 (5, 15, 25 mg/kg/day i.p.), normalized with tubulin, compared with group 2
Procedure: as §1, §2, §3

[15] = system: IGFIR; assay: Western blotting of liver protein extract: IGFIR; conditions: high-fat diet mice, groups 3~5 (5, 15, 25 mg/kg/day i.p.), normalized with tubulin, compared with group 2
Procedure: as §1, §2, §3

peptide of SEQ ID No.1: isolated peptide containing an amino acid sequence of SEQ ID No.1; obtainable by extraction, hydrolyzation or chemical synthesis (VHVV)
expression level of Caspase-8 (pro-apoptotic factor) in mouse liver [1]: obviously suppressed
expression level of MMP-9 in mouse liver [2]: obviously suppressed
expression level of survival related protein PI3K in mouse liver [3]: obviously higher
fat accumulation in the mouse liver (H&E) ([4]; compared with group 2): obviously decreased
giant oil drops in the mouse liver (H&E) ([4]; group 2 filled with giant oil drops): never was observed the giant oil drop
arrangement of hepatocytes in the mouse liver (H&E) ([4]; group 2 loosely arranged): tightly arranged hepatocytes
expression level of TNFα in mouse liver [5]: obviously reduced
concentration of LDL in blood plasma [6]: obviously decreased
concentration of triglyceride in blood plasma [6]: obviously decreased
expression level of survival related protein AKT (pAKT) in mouse liver [7]: obviously higher
expression level of PPARα in mouse liver [8]: obviously increased
expression level of cytochrome c (pro-apoptotic factor) in mouse liver [9]: obviously suppressed
expression level of Bax (pro-apoptotic factor) in mouse liver [10]: obviously suppressed
expression level of Caspase-3 (pro-apoptotic factor) in mouse liver [11]: obviously suppressed
expression level of Bcl-2 in mouse liver [12]: elevated
expression level of IL-6 in mouse liver [13]: obviously reduced
expression level of Caspase-9 (pro-apoptotic factor) in mouse liver [14]: obviously suppressed
expression level of survival related protein IGFIR (pIGF-IR) in mouse liver [15]: obviously higher
